These are literature values, as cited in patent publication EP0279688B1, “Methods and compositions for the use of HIV env polypeptides and antibodies thereto” (GENENTECH, INC., priority 1987, dated 1988).

In the data set the test system is viral replication. The following applies: Mitsuya and Broder, 1985.

Regarding `Cc1cn([C@H]2C[C@H](N=[N+]=[N-])[C@@H](CO)O2)c(=O)[nH]c1=O` [AZT], the “concentrations inhibiting viral replication” value was 50-500 µm.
Consider `Nc1ccn([C@H]2CC[C@@H](CO)O2)c(=O)n1` [DDC], for which the “concentrations inhibiting viral replication” value is recorded as 50-500 µm.
